Experimental data: patent publication US10189859B2, “Derivatives of 6-(2,3-dichlorophenyl)-1,2,4-triazin-5-amine” (Nektar Therapeutics, priority 2013, dated 2019)
Several values for one entry are separate records, joined by “and”; a condition that tells them apart may be missing. Identical values can stand only once. Counter-ions that a name gives are not always drawn. Like-named read-outs stand apart in the source and are kept apart here.

How the values were obtained:
AFP model = assay: AFP animal model; assay type: in vivo
From the text: (§1) The efficacy of the compounds when evaluated in additional well-known animal models, AFP, RR, and hyperalgesia, was also explored.

[1] = Pharmacokinetics after intravenous or oral dosing, plasma LC/MS/MS; assay type: in vivo; settings: fasted male Sprague Dawley rats
Description: Fasted, male Sprague Dawley rats were dosed intravenously or orally. Blood samples were collected at pre-determined time points and plasma was separated. Test article concentrations were determined in plasma by a LC/MS/MS method. Non compartmental analysis was performed to estimate the area under the plasma concentration vs. time curve (AUC). Clearance parameters (CL), bioavailabilities (F) and half-lives were calculated.

[2] = target: Nav1.7 sodium channels (human SCN9A gene) (Homo sapiens (Human), UniProt Q15858); assay: Automated patch clamp (IonWorks Barracuda) of Nav1.7 stably expressed in CHO cells; assay type: cell-based
In short: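 Whole-cell currents from CHO cells, holding −90 mV. Tonic block: 200 ms pre-pulse to −120 mV, step to 0 mV. Inactivated-state block: 20 ms at −100 mV then 20 ms at 0 mV. Percent block of peak inward Na+ current versus vehicle across concentrations gave IC50.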

Na+ channels = assay: Blockage of Na+ channels, whole-cell patch clamp, isolated dorsal root ganglion cells; assay type: cell-based, rat
Description: Currents are measured using the whole-cell variant of the patch clamp method. INa is elicited by a pulse to −20 mV from a holding potential of −120 mV or −70 mV to measure blockade at the inactivated state (pulse duration of 40 ms), Peak inward current is measured for INa. Pacing rates of […] are examined. Increasing concentrations of test compounds are added to the cells in a cumulative manner to generate a concentration-response relationship which is utilized to calculate the IC50.

RR model = assay: RR animal model; assay type: in vivo
From the text: as §1

[3] = inactivated state block, CHO cells, read-out: Inactivated state IC50
[4] = tonic (resting) state block, CHO cells, read-out: Tonic state IC50
[5] = AFP, Ph 2, timepoint 0.5 h, minimum effective dose
[6] = read-out: Inactivated state IC50

Chain of Nav1.7 sodium channels (human SCN9A gene) (Q15858 whole entry): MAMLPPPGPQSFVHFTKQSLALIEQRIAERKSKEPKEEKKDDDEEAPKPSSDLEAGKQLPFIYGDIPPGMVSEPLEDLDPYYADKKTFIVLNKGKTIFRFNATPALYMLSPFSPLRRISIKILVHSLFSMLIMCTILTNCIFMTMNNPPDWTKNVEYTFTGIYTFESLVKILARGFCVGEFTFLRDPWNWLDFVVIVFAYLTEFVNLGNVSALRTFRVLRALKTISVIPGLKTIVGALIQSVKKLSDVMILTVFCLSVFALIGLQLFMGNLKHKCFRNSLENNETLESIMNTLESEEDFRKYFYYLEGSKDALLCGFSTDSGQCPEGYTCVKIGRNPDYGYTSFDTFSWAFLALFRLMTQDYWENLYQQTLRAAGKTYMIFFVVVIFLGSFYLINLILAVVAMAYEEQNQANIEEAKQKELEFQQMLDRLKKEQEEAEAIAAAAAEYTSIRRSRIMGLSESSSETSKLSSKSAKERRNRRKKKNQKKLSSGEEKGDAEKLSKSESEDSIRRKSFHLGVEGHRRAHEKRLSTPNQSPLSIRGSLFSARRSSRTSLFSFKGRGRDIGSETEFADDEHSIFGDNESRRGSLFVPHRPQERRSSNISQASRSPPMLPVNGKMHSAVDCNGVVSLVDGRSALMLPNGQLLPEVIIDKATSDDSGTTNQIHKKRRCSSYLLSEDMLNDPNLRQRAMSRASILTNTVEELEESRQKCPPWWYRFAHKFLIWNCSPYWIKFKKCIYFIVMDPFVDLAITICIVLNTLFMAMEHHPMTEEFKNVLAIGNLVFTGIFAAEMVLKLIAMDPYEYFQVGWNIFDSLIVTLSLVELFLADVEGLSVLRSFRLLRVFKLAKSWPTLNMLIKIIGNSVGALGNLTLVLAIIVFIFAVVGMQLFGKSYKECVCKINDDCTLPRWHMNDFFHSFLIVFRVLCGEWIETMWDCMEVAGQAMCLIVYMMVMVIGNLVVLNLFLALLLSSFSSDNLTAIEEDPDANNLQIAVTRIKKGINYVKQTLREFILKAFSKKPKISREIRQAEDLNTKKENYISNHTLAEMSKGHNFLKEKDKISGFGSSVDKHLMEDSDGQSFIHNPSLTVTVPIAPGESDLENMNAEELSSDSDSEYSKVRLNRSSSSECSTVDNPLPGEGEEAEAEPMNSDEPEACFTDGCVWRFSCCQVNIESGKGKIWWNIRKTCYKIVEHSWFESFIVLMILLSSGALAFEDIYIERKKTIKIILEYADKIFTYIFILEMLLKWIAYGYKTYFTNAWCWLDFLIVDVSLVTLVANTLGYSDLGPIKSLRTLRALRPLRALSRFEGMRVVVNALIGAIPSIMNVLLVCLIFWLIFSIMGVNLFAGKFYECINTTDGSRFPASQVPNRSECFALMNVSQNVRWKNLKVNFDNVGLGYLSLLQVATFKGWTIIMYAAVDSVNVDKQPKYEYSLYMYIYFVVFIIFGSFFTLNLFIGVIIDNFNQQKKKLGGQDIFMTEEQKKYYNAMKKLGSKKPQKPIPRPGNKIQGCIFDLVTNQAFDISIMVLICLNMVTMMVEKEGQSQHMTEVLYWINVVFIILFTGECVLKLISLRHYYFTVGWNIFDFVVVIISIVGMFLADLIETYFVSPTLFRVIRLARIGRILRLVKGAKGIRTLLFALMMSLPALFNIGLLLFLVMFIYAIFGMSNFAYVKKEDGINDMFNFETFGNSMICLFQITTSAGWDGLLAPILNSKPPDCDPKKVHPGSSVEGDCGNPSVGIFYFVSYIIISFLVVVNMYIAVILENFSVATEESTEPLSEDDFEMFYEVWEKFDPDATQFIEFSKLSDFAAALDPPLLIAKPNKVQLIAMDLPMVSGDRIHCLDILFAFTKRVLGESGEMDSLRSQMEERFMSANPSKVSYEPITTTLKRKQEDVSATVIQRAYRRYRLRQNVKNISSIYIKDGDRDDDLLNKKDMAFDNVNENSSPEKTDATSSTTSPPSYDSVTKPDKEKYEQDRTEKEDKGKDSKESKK

SMILES	pharmacokinetics (qualitative ranking of the compounds tested) [1]	exposure after oral dosing (qualitative ranking) [1]	IC50 [2, 3]	IC50 [2, 4]	IC50 [2, 6]	IC50 ([2]; read-out: Tonic state IC50)	also measured
Cl.Cl.Nc1nc(N2CCN(C[C@H](O)COCC(F)(F)F)CC2)nnc1-c1cccc(Cl)c1Cl [Compound 95, (S)-1-(4-(5-amino-6-(2,3-dichlorophenyl)-1,2,4-triazin-3-yl)-piperazin-1-yl)-3-(2,2,2-trifluoroethoxy)-propan-2-ol-2HCl]	most favorable pharmacokinetics	best exposure after oral dosing					MED (mg/kg) (AFP model; AFP, Ph 1, timepoint 0.5 h, 500 mg/kg as 2 doses @ 250 mg/kg): 500 (Ph 1) mg/kg
Nc1nc(NCCOCCOCCOC(F)(F)F)nnc1-c1cccc(Cl)c1Cl [Compound 167, 6-(2,3-dichlorophenyl)-N^3-(2-(2-(2-(trifluoromethoxy)ethoxy)ethoxy)ethyl)-1,2,4-triazine-3,5-diamine]			< 50 µM	108 µM and 91.5 µM and 130 µM			MED (AFP model; AFP, +ABT, timepoint 0.5 h, minimum effective dose): 100 mg/kg
Nc1nc(N2CCN(C[C@H](O)CCl)CC2)nnc1-c1cccc(Cl)c1Cl [Compound 207, (S)-1-(4-(5-amino-6-(2,3-dichlorophenyl)-1,2,4-triazin-3-yl)piperazin-1-yl)-3-chloropropan-2-ol]		best exposure after oral dosing	107 µM and 133 µM	> 200 µM			ED50 (AFP model; 0.5 h): 476 mg/kg; MED (mg/kg) (AFP model; [5]): 300 (Ph 2) mg/kg
CC(C)(CO)Nc1nnc(-c2cccc(Cl)c2Cl)c(N)n1 [Compound 1, 2-((5-amino-6-(2,3-dichlorophenyl)-1,2,4-triazin-3-yl)amino)-2-methylpropan-1-ol]			60.1 µM and < 50 µM	> 200 µM and 197 µM			MED (mg/kg) (AFP model; [5]): 450 (Ph 2) mg/kg; ED50 (AFP model; AFP, Ph 2, timepoint 0.5 h, read-out: ED50): 589 mg/kg
CS(=O)(=O)CCN1CCN(c2nnc(-c3cccc(Cl)c3Cl)c(N)n2)CC1 [Compound 202, 6-(2,3-dichlorophenyl)-3-(4-(2-(methylsulfonyl)ethyl)piperazin-1-yl)-1,2,4-triazin-5-amine]		best exposure after oral dosing			> 300 µM	> 200 µM	
COC[C@@H](O)CN1CCN(c2nnc(-c3cccc(Cl)c3Cl)c(N)n2)CC1 [Compound 97, (S)-1-(4-(5-amino-6-(2,3-dichlorophenyl)-1,2,4-triazin-3-yl)piperazin-1-yl)-3-methoxypropan-2-ol]	most favorable pharmacokinetics	best exposure after oral dosing	90.5 µM		< 50 µM and 82.2 µM	> 200 µM	IC50 (Na+ channels; Vh −70 mV (inactivated state), pacing 0.1 Hz, read-out: IC50 (μM) 0.1 Hz): 39.5 µM; IC50 (Na+ channels; Vh −70 mV (inactivated state), pacing 3 Hz, read-out: IC50 (μM) 3 Hz): 21.5 µM; IC50 (Na+ channels; Vh −70 mV (inactivated state), pacing 10 Hz, read-out: IC50 (μM) 10 Hz): 16.5 µM; IC50 (Na+ channels; Vh −120 mV, pacing 0.1 Hz, read-out: IC50 (μM) 0.1 Hz): > 100 µM; IC50 (Na+ channels; Vh −120 mV, pacing 3 Hz, read-out: IC50 (μM) 3 Hz): > 100 µM; IC50 (Na+ channels; Vh −120 mV, pacing 10 Hz, read-out: IC50 (μM) 10 Hz): 74.4 µM
CCOC[C@H](O)CN1CCN(c2nnc(-c3cccc(Cl)c3Cl)c(N)n2)CC1 [Compound 55, (R)-1-(4-(5-Amino-6-(2,3-dichlorophenyl)-1,2,4-triazin-3-yl)piperazin-1-yl)-3-ethoxypropan-2-ol]		best exposure after oral dosing	62.3 µM	> 200 µM			
COC[C@H](O)CN1CCN(c2nnc(-c3cccc(Cl)c3Cl)c(N)n2)CC1 [Compound 96, (R)-1-(4-(5-amino-6-(2,3-dichlorophenyl)-1,2,4-triazin-3-yl)piperazin-1-yl)-3-methoxypropan-2-ol]	most favorable pharmacokinetics	best exposure after oral dosing			< 50 µM	> 200 µM	
Nc1nc(N2CCN3C(=O)COC[C@H]3C2)nnc1-c1cccc(Cl)c1Cl [Compound 130, (R)-8-(5-amino-6-(2,3-dichlorophenyl)-1,2,4-triazin-3-yl)hexahydropyrazino[2,1-c][1,4]oxazin-4(3H)-one HCl salt]	most favorable pharmacokinetics	best exposure after oral dosing			204 µM	> 200 µM	
Nc1nc(NCCOCCOC(F)(F)F)nnc1-c1cccc(Cl)c1Cl [Compound 45, 6-(2,3-Dichlorophenyl)-N^3-(2-(2-(trifluoromethoxy)ethoxy)ethyl)-1,2,4-triazine-3,5-diamine]		best exposure after oral dosing					ED50 (RR model; 0.5 h): 21 mg/kg; ED50 (RR model; 1 h): 18.9 mg/kg; MED (RR model; timepoints 0.5, 1 h, minimum effective dose): 30 mg/kg; MED (mg/kg) (AFP model; AFP, Ph 2, timepoint 0.25 h, minimum effective dose): 30 (Ph 2) mg/kg; ED50 (AFP model; AFP, Ph 2, timepoint 0.25 h, read-out: ED50): 46.8 mg/kg
Nc1nc(N2CCN(CCOCCO)CC2)nnc1-c1cccc(Cl)c1Cl [Compound 201, 2-(2-(4-(5-amino-6-(2,3-dichlorophenyl)-1,2,4-triazin-3-yl)piperazin-1-yl)ethoxy)ethanol]		best exposure after oral dosing	202 µM	> 200 µM			
CC(C)OC[C@H](O)CN1CCN(c2nnc(-c3cccc(Cl)c3Cl)c(N)n2)CC1 [Compound 73, (R)-1-(4-(5-Amino-6-(2,3-dichlorophenyl)-1,2,4-triazin-3-yl)piperazin-1-yl)-3-isopropoxypropan-2-ol]		best exposure after oral dosing	< 50 µM	179 µM			
Nc1nc(N2CCN(CCO)CC2)nnc1-c1cccc(Cl)c1Cl [Compound 200, 2-(4-(5-amino-6-(2,3-dichlorophenyl)-1,2,4-triazin-3-yl)piperazin-1-yl)ethanol]		best exposure after oral dosing	120 µM	> 200 µM			
Nc1nc(N2CCNCC2)nnc1-c1cccc(Cl)c1Cl [Compound 79, 6-(2,3-dichlorophenyl)-3-(piperazin-1-yl)-1,2,4-triazin-5-amine]		best exposure after oral dosing	95.3 µM	> 200 µM			
Nc1nc(N2CCN3C(=O)OC[C@H]3C2)nnc1-c1cccc(Cl)c1Cl [Compound 127, (R)-7-(5-amino-6-(2,3-dichlorophenyl)-1,2,4-triazin-3-yl)tetrahydro-1H-oxazolo[3,4-a]pyrazin-3(5H)-one]	most favorable pharmacokinetics	best exposure after oral dosing			> 300 µM	> 200 µM	
